Earlier results in publication PMC7931078 (Molecules, 2021).
≈ marks a conversion by molar mass, not a printed value.

Tested on: Mtb
Design: method as in PMID 29487031
Conditions: first line treatment regimen; cited from earlier work

## CC[C@@H](CO)NCCN[C@@H](CC)CO [ethambutol]
  MIC: 15 µM (≈ 3.06 µg/mL)
